According to patent publication US20230085307A1, “PYRIDAZINONE COMPOUND AND HERBICIDE” (NISSAN CHEMICAL CORPORATION, priority 2019, published 2023):

Tests used:
late watergrass = test: Test Example 1: herbicidal activity, application before weed generation under submerged conditions (Table 16, symbol A); format: in vivo, late watergrass (Echinochloa oryzicola); conditions: 320 g/ha applied herbicide
Outline: (§1)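 Alluvial soil was flooded to 4 cm depth, weed seeds were sown mixed and 2.5-leaf rice seedlings were transplanted. On sowing day, the compound's emulsion, diluted in water to a set dose, was applied to the water surface. Plants grew at 25–30 °C and were scored 0–5 after three weeks.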

Japanese bulrush = test: Test Example 1: herbicidal activity, application before weed generation under submerged conditions (Table 16, symbol B); format: in vivo, Japanese bulrush (Schoenoplectus juncoides); conditions: 320 g/ha applied herbicide
Outline: as §1

oval-leafed pondweed = test: Test Example 1: herbicidal activity, application before weed generation under submerged conditions (Table 16, symbol C); format: in vivo, oval-leafed pondweed (Monochoria vaginalis); conditions: 320 g/ha applied herbicide
Outline: as §1

barnyard grass = test: Test Example 3: herbicidal effect by foliage application, Wagner pot (Table 18, symbol H); format: in vivo, barnyard grass (Echinochloa crus-galli); conditions: for herbicidal effect on H: barnyard grass: amount of applied herbicide 320 g/ha
Outline: (§2)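 Plants were sown in alluvial soil held under 0.1–0.5 cm standing water and grown 14 days in a greenhouse at 25–30 °C. An emulsifiable formulation, water-diluted to the set dose, was then sprayed onto the foliage, and effects were scored three weeks later using previously defined criteria.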

Chinese sprangletop = test: Test Example 3: herbicidal effect by foliage application, Wagner pot (Table 18, symbol D); format: in vivo, chinese sprangletop (Leptochloa chinensis); conditions: for herbicidal effect on D: Chinese sprangletop: amount of applied herbicide 320 g/ha
Outline: as §2

rice flat sedge = test: Test Example 3: herbicidal effect by foliage application, Wagner pot (Table 18, symbol E); format: in vivo, rice flat sedge (Cyperus iria); conditions: for herbicidal effect on E: rice flat sedge: amount of applied herbicide 320 g/ha
Outline: as §2

Italian ryegrass [1] = test: Test Example 4: herbicidal effect by soil treatment (Table 19, symbol K); format: in vivo, Italian ryegrass (Lolium multiflorum); conditions: for herbicidal effect on K: Italian ryegrass: amount of applied herbicide 320 g/ha
Outline: (§3)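 Three weeks of greenhouse growth at 25° C. to 30° C. followed a uniform surface spray of water-diluted emulsion at a predetermined herbicide amount. Seeds had been sown beforehand under about 1.5 cm of sterilized diluvial soil. Grading followed criteria set out in an earlier test.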

windgrass = test: Test Example 4: herbicidal effect by soil treatment (Table 19, symbol L); format: in vivo, windgrass (Apera spica-venti); conditions: for herbicidal effect on L: windgrass: amount of applied herbicide 320 g/ha
Outline: as §3

lambsquarters [2] = test: Test Example 4: herbicidal effect by soil treatment (Table 19, symbol O); format: in vivo, lambsquarters (Chenopodium album); conditions: for herbicidal effect on O: lambsquarters: amount of applied herbicide 320 g/ha
Outline: as §3

chickweed = test: Test Example 4: herbicidal effect by soil treatment (Table 19, symbol P); format: in vivo, common chickweed (Stellaria media); conditions: for herbicidal effect on P: chickweed: amount of applied herbicide 320 g/ha
Outline: as §3

southern crabgrass = test: Test Example 5: herbicidal effect by foliage application, plastic box (Table 20, symbol F); format: in vivo, southern crabgrass (Digitaria ciliaris); conditions: foliage application, evaluated three weeks after application; for F: southern crabgrass, herbicidal effect (criteria 0-5): AAH 320 g/ha
Outline: (§4)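 Plants sown in sterilized diluvial soil and grown 14 days in a greenhouse at 25° C to 30° C, then sprayed on the foliage with the compound's emulsion diluted in water to a predetermined herbicide amount. Injury to weeds and crops scored three weeks after application on a visual rating scale.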

green foxtail = test: Test Example 5: herbicidal effect by foliage application, plastic box (Table 20, symbol G); format: in vivo, green foxtail (Setaria viridis); conditions: foliage application, evaluated three weeks after application; for G: green foxtail, herbicidal effect (criteria 0-5): AAH 320 g/ha
Outline: as §4

wild oat = test: Test Example 5: herbicidal effect by foliage application, plastic box (Table 20, symbol I); format: in vivo, wild oat (Avena fatua); conditions: foliage application, evaluated three weeks after application; for I: wild oat, herbicidal effect (criteria 0-5): AAH 320 g/ha
Outline: as §4

blackgrass = test: Test Example 5: herbicidal effect by foliage application, plastic box (Table 20, symbol J); format: in vivo, blackgrass (Alopecurus myosuroides); conditions: foliage application, evaluated three weeks after application; for J: blackgrass, herbicidal effect (criteria 0-5): AAH 320 g/ha
Outline: as §4

Italian ryegrass [3] = test: Test Example 5: herbicidal effect by foliage application, plastic box (Table 20, symbol K); format: in vivo, Italian ryegrass (Lolium multiflorum); conditions: foliage application, evaluated three weeks after application; for K: Italian ryegrass, herbicidal effect (criteria 0-5): AAH 320 g/ha
Outline: as §4

velvetleaf = test: Test Example 5: herbicidal effect by foliage application, plastic box (Table 20, symbol M); format: in vivo, velvetleaf (Abutilon theophrasti); conditions: foliage application, evaluated three weeks after application; for M: velvetleaf, herbicidal effect (criteria 0-5): AAH 320 g/ha
Outline: as §4

lambsquarters [4] = test: Test Example 5: herbicidal effect by foliage application, plastic box (Table 20, symbol O); format: in vivo, lambsquarters (Chenopodium album); conditions: foliage application, evaluated three weeks after application; for O: lambsquarters, herbicidal effect (criteria 0-5): AAH 320 g/ha
Outline: as §4

Row | SMILES | Herbicidal effect on A: late watergrass (grade 0-5) (late watergrass) | Herbicidal effect on B: Japanese bulrush (grade 0-5) (Japanese bulrush) | Herbicidal effect on C: oval-leafed pondweed (grade 0-5) (oval-leafed pondweed) | herbicidal effect on H: barnyard grass (barnyard grass) | herbicidal effect on D: Chinese sprangletop (Chinese sprangletop) | herbicidal effect on E: rice flat sedge (rice flat sedge) | herbicidal effect on K: Italian ryegrass (Italian ryegrass [1]) | herbicidal effect on L: windgrass (windgrass) | herbicidal effect on O: lambsquarters (lambsquarters [2]) | herbicidal effect on P: chickweed (chickweed) | F: southern crabgrass, herbicidal effect (criteria 0-5) (southern crabgrass) | G: green foxtail, herbicidal effect (criteria 0-5) (green foxtail) | I: wild oat, herbicidal effect (criteria 0-5) (wild oat) | J: blackgrass, herbicidal effect (criteria 0-5) (blackgrass) | K: Italian ryegrass, herbicidal effect (criteria 0-5) (Italian ryegrass [3]) | M: velvetleaf, herbicidal effect (criteria 0-5) (velvetleaf) | O: lambsquarters, herbicidal effect (criteria 0-5) (lambsquarters [4]) | also measured
1 | Cc1nn(C)c(=O)c(-c2c(-c3ccc(SC(C)C)cc3)sc3ccc(F)cc23)c1O [2-252] | 3 (Herbicidal rate of 40% or more and less than 70%) | 2 (Herbicidal rate of 20% or more and less than 40%) | 1 (Herbicidal rate of 5% or more and less than 20%) | 5 (Herbicidal rate of 90% or more (almost completely withered)) | 5 (Herbicidal rate of 90% or more (almost completely withered)) | 5 (Herbicidal rate of 90% or more (almost completely withered)) | 3 (Herbicidal rate of 40% or more and less than 70%) | 0 (Herbicidal rate of 5% or less (almost no effect)) | 4 (Herbicidal rate of 70% or more and less than 90%) | 5 (Herbicidal rate of 90% or more (almost completely withered)) | – | – | – | – | – | – | – | herbicidal effect on F: southern crabgrass (criteria 0-5) (southern crabgrass; 320 g/ha): 4 (Herbicidal rate of 70% or more and less than 90%); herbicidal effect on G: green foxtail (criteria 0-5) (green foxtail; 320 g/ha): 4 (Herbicidal rate of 70% or more and less than 90%); herbicidal effect on I: wild oat (criteria 0-5) (wild oat; 320 g/ha): 4 (Herbicidal rate of 70% or more and less than 90%); herbicidal effect on J: blackgrass (criteria 0-5) (blackgrass; 320 g/ha): 5 (Herbicidal rate of 90% or more (almost completely withered)); herbicidal effect on K: Italian ryegrass (criteria 0-5) (Italian ryegrass [3]; 320 g/ha): 5 (Herbicidal rate of 90% or more (almost completely withered)); herbicidal effect on M: velvetleaf (criteria 0-5) (velvetleaf; 320 g/ha): 5 (Herbicidal rate of 90% or more (almost completely withered)); herbicidal effect on O: lambsquarters (criteria 0-5) (lambsquarters [4]; 320 g/ha): 5 (Herbicidal rate of 90% or more (almost completely withered))
2 | COc1ccc(-c2sc3ccc(F)cc3c2-c2c(O)c(C)nn(C)c2=O)cc1OC [2-088] | 3 (Herbicidal rate of 40% or more and less than 70%) | 2 (Herbicidal rate of 20% or more and less than 40%) | 0 (Herbicidal rate of 5% or less (almost no effect)) | – | – | – | – | – | – | – | – | – | – | – | – | – | – | herbicidal effect on H (barnyard grass), rating 0-5 (barnyard grass; 320 g/ha): 5 (Herbicidal rate of 90% or more (almost completely withered)); herbicidal effect on D (Chinese sprangletop), rating 0-5 (Chinese sprangletop; 320 g/ha): 3 (Herbicidal rate of 40% or more and less than 70%); herbicidal effect on E (rice flat sedge), rating 0-5 (rice flat sedge; 320 g/ha): 5 (Herbicidal rate of 90% or more (almost completely withered)); herbicidal effect rating, K: Italian ryegrass (Italian ryegrass [1]; 320 g/ha): 3 (Herbicidal rate of 40% or more and less than 70%); herbicidal effect rating, L: windgrass (windgrass; 320 g/ha): 0 (Herbicidal rate of 5% or less (almost no effect)); herbicidal effect rating, O: lambsquarters (lambsquarters [2]; 320 g/ha): 4 (Herbicidal rate of 70% or more and less than 90%); herbicidal effect rating, P: chickweed (chickweed; 320 g/ha): 2 (Herbicidal rate of 20% or more and less than 40%); herbicidal effect on F: southern crabgrass (southern crabgrass; 320 g/ha): 3 (Herbicidal rate of 40% or more and less than 70%); herbicidal effect on G: green foxtail (green foxtail; 320 g/ha): 5 (Herbicidal rate of 90% or more (almost completely withered)); herbicidal effect on I: wild oat (wild oat; 320 g/ha): 0 (Herbicidal rate of 5% or less (almost no effect)); herbicidal effect on J: blackgrass (blackgrass; 320 g/ha): 0 (Herbicidal rate of 5% or less (almost no effect)); herbicidal effect on K: Italian ryegrass (Italian ryegrass [3]; 320 g/ha): 4 (Herbicidal rate of 70% or more and less than 90%); herbicidal effect on M: velvetleaf (velvetleaf; 320 g/ha): 5 (Herbicidal rate of 90% or more (almost completely withered)); herbicidal effect on O: lambsquarters (lambsquarters [4]; 320 g/ha): 4 (Herbicidal rate of 70% or more and less than 90%)
3 | CCCC(=O)Oc1c(C)nn(C)c(=O)c1-c1c(-c2ccc(SC3CC3)cc2)sc2ccc(F)cc12 [2-255] | 5 (Herbicidal rate of 90% or more (almost completely withered)) | 3 (Herbicidal rate of 40% or more and less than 70%) | 3 (Herbicidal rate of 40% or more and less than 70%) | 5 (Herbicidal rate of 90% or more (almost completely withered)) | 4 (Herbicidal rate of 70% or more and less than 90%) | 5 (Herbicidal rate of 90% or more (almost completely withered)) | 3 (Herbicidal rate of 40% or more and less than 70%) | 3 (Herbicidal rate of 40% or more and less than 70%) | 3 (Herbicidal rate of 40% or more and less than 70%) | 4 (Herbicidal rate of 70% or more and less than 90%) | 5 (Herbicidal rate of 90% or more (almost completely withered)) | 5 (Herbicidal rate of 90% or more (almost completely withered)) | 5 (Herbicidal rate of 90% or more (almost completely withered)) | 5 (Herbicidal rate of 90% or more (almost completely withered)) | 5 (Herbicidal rate of 90% or more (almost completely withered)) | 5 (Herbicidal rate of 90% or more (almost completely withered)) | 4 (Herbicidal rate of 70% or more and less than 90%) | –
4 | Cc1nn(C)c(=O)c(-c2c(-c3ccc(OC(F)F)cc3)sc3ccc(F)cc23)c1OC(=O)COc1ccccc1 [2-284] | 3 (Herbicidal rate of 40% or more and less than 70%) | 3 (Herbicidal rate of 40% or more and less than 70%) | 3 (Herbicidal rate of 40% or more and less than 70%) | 5 (Herbicidal rate of 90% or more (almost completely withered)) | 3 (Herbicidal rate of 40% or more and less than 70%) | 5 (Herbicidal rate of 90% or more (almost completely withered)) | 5 (Herbicidal rate of 90% or more (almost completely withered)) | 4 (Herbicidal rate of 70% or more and less than 90%) | 5 (Herbicidal rate of 90% or more (almost completely withered)) | 4 (Herbicidal rate of 70% or more and less than 90%) | 3 (Herbicidal rate of 40% or more and less than 70%) | 5 (Herbicidal rate of 90% or more (almost completely withered)) | 4 (Herbicidal rate of 70% or more and less than 90%) | 5 (Herbicidal rate of 90% or more (almost completely withered)) | 5 (Herbicidal rate of 90% or more (almost completely withered)) | 5 (Herbicidal rate of 90% or more (almost completely withered)) | 5 (Herbicidal rate of 90% or more (almost completely withered)) | –
